Measurements taken from patent publication US20070066570A1, “Methods for treating sleep disorders” (priority 2003, published 2007).

System: Adult, male Wistar rats
Experiment: Sleep-wakefulness monitoring (EEG/EMG, SCORE-2000) in rats: NREM sleep cumulation and longest uninterrupted sleep bout
Format: in vivo, rat
Settings: for LUSB (longest uninterrupted sleep bout each hour, mean adjusted for baseline and vehicle control) / NREM (mean maximum cumulation of NREM sleep over baseline, adjusted for baseline and vehicle control): intraperitoneal bolus at CT-18, male Wistar rats; for Increase of LUSB versus vehicle control (FIGS. 4-6), in words / Increase of NREM sleep cumulation versus vehicle control (FIGS. 1-3), in words: rats
Method: Sleep-wakefulness, locomotor activity and body temperature were monitored in vivo with the disclosed racemic sleep-inducing agent 1 and its R and S isomers 1-R and 1-S. Adult, male Wistar rats (250 g at time of surgery, Charles River Laboratories, Wilmington Mass.) were anesthetized (Nembutal, 62 mg/kg) and surgically prepared with a cranial implant to permit chronic electro-encephalogram (EEG) and electromyogram (EMG) recording. Body temperature and locomotor activity were monitored via a miniature transmitter (Mini-Mitter, Bend, Oreg.) surgically placed in the abdomen. The cranial implant consisted of stainless steel screws (two frontal [+3.2 AP from bregma, ±2.0 ML] and two occipital [−6.9 AP, ±5.5 ML]) for EEG recording. Two Teflon®-coated stainless steel wires were positioned under the nuchal trapezoid muscles for EMG recording. All leads were soldered to a miniature connector prior to surgery, and gas sterilized in ethylene oxide. The implant assembly was affixed to the skull with dental acrylic. A minimum of three weeks was allowed for surgical recovery.
Each rat was permanently housed in its own individual recording cage located within separate, ventilated compartments of custom- designed stainless steel cabinets. Each cage was enhanced with a filter-top riser and low-torque swivel-commutator. Food and water were available ad libitum. A 24-hr light-dark cycle (12 hours light, 12 hours dark) was maintained throughout the study using 4-watt fluorescent bulbs 5 cm from the cage. Animals were undisturbed for at least 48 hours before and after treatments.
Sleep and wakefulness were determined using “SCORE-2000™” (Hypnion, Worcester, Mass.)—an internet-based sleep-wake and physiological monitoring system. The system monitored amplified EEG (bandpass 1-30 Hz; digitization rate 400 Hz), integrated EMG (bandpass 10-100 Hz), body temperature and non-specific locomotor activity (LMA) via telemetry, and drinking activity, continuously and simultaneously. Arousal states were classified on-line as non-REM (NREM) sleep, REM sleep, wake, or theta-dominated wake every 10 seconds using EEG feature extraction and pattern-matching algorithms. […] The classification algorithm used individually-taught EEG-arousal-state templates, plus EMG criteria to differentiate REM sleep from theta-dominated wakefulness, plus behavior-dependent contextual rules (e.g., if the animal was drinking, it is awake). Drinking and locomotor activity (LMA) were recorded as discrete events every 10 seconds, while body temperature was recorded each minute. Locomotor activity was detected by a telemetry receiver (Mini-Mitter) beneath the cage. Telemetry measures (LMA and body temperature) were not part of the scoring algorithm; thus, sleep-scoring and telemetry data were independent measures.
Compounds were administered at CT-18, the peak of the activity-dominated period, in order to ensure prior wakefulness was sufficient to interact positively with hypnotic-drug effects, and sufficient time was allowed to view the time course of the treatment effect before lights-on (6 hours post-treatment). Compounds were suspended in sterile 0.25% or 0.5% methylcellulose (2 ml/kg). Treatments were administered as an intraperitoneal bolus.
A parallel group study design was employed. Vehicle controls were drawn from a large pool (N>200): a subset of the pooled vehicle controls was selected, based on computerized matching with the 24-hour pre-treatment baseline of the active treatment group.
In Table 1, N is the number of trials, and NREM and LUSB values are means adjusted for both baseline and vehicle control values. NREM represents the mean maximum cumulation of NREM sleep in minutes over baseline as a function of time in hours after treatment with the compound or the vehicle control; LUSB is the longest uninterrupted sleep bout each hour in minutes as a function of circadian time.

Structure (SMILES) | LUSB (longest uninterrupted sleep bout each hour, mean adjusted for baseline and vehicle control) (10 mg/kg) | NREM (mean maximum cumulation of NREM sleep over baseline, adjusted for baseline and vehicle control) (10 mg/kg) | LUSB (longest uninterrupted sleep bout each hour, mean adjusted for baseline and vehicle control) (30 mg/kg) | NREM (mean maximum cumulation of NREM sleep over baseline, adjusted for baseline and vehicle control) (30 mg/kg) | Increase of LUSB versus vehicle control (FIGS. 4-6), in words (30 mg/kg) | Increase of NREM sleep cumulation versus vehicle control (FIGS. 1-3), in words (30 mg/kg) | LUSB (longest uninterrupted sleep bout each hour, mean adjusted for baseline and vehicle control) (45 mg/kg) | NREM (mean maximum cumulation of NREM sleep over baseline, adjusted for baseline and vehicle control) (45 mg/kg) | LUSB (longest uninterrupted sleep bout each hour, mean adjusted for baseline and vehicle control) (3 mg/kg) | NREM (mean maximum cumulation of NREM sleep over baseline, adjusted for baseline and vehicle control) (3 mg/kg) | Increase of NREM sleep cumulation versus vehicle control (FIGS. 1-3), in words (10 mg/kg)
O=C(O)[C@@H]1CCCN(CCC=C2c3ccccc3CCc3ccccc32)C1 [Compound 1-R] | 2.5 min | 3.4 min | 5.8 min | 20.7 min | effective at increasing LUSB | effective at increasing NREM cumulation | 10.3 min | 31.8 min |  |  | 
O=C(O)C1CCCN(CCC=C2c3ccccc3CCc3ccccc32)C1 (racemic) [Compound 1] | 2.8 min | 24.8 min | 4.9 min | 35.4 min | effective at increasing LUSB | effective at increasing NREM cumulation |  |  | 4.7 min | 15 min | particularly effective
O=C(O)[C@H]1CCCN(CCC=C2c3ccccc3CCc3ccccc32)C1 [Compound 1-S] | 5.5 min | 31.9 min | 9.7 min | 31.8 min | effective at increasing LUSB | effective at increasing NREM cumulation |  |  |  |  | particularly effective
